According to patent EP0052910A1, “Derivative of N-acetilcysteine having therapeutical activity, process for its preparation and related pharmaceutical compositions” (Real S.a.s. di Alberto Reiner & C., priority 1980, dated 1982):

Experiments:
[1] = test system: rats of male sex, of the Sprague-Dawley strain; assay: Anti-inflammatory activity in the kaolin test; type: in vivo; settings: 10% suspension of kaolin injected, diameter of the tibio-tarsal articulation
Experimental: a) Anti-inflammatory activity in the kaolin test. For each compound 16 rats of male sex, of the Sprague-Dawley strain and of 200-250 g of body weight, were used. The rats were divided into four groups each comprising four rats. All.-the animals were injected with a 10% suspension of kaolin. The first group was used as the control, whereas the other three groups were administered with doses respectively of 50,75 and 100 mg/kg. The measurements of the diamzrers of the articulation were effected one hour after the kaolin injection and then every 24 hours.
The inoculation of kaolin caused an increase of the tibio-tarsal articulation which has been partially limited by the treatment with the test compound.

[2] = test system: male rats, of the Sprague-Dawley strain; assay: Anti-inflammatory activity in the egg white test; type: in vivo; settings: orally, 0.1 ml of egg white in the rear paw, measured 3 and 4 hours later
Experimental: For each compound 16 male rats, of the Sprague-Dawley strain and weighing 300 g, were used. The animals were divided in four groups each comprising four rats. The first group served as a control, whereas the other three gropus were orally administered, with a 30 minute interval, with two doses of 50,75 and 100 mg/kg of the test compound. The last administration was immediately followed by the inoculation of 0.1 ml of egg white in the rear paw of all the animals, including the controls. The measurements of the diameters of the articulations were effected 3 and 4 hours later.

With “p-isobutylphenylpropionoylthio-N-acetylcysteine” as the substance, how does the Anti-inflammatory activity % ([1]; dose 75 mg/kg) read?
Its Anti-inflammatory activity % is 12%.

And the Anti-inflammatory activity % ([1]; dose 100 mg/kg)?
The Anti-inflammatory activity % was 26%.

What about the Anti-inflammatory activity % ([2]; two doses of 75 mg/kg with a 30 minute interval) of the same substance?
The Anti-inflammatory activity % was 12%.

What about the Anti-inflammatory activity % ([2]; two doses of 100 mg/kg with a 30 minute interval) of the same substance?
Its Anti-inflammatory activity % is 20%.
